# From patent US12594267B2, “Capsid inhibitors for the treatment of HIV” (Gilead Sciences, Inc., priority 2018, dated 2026)
# Read-outs that look alike come from different tables or passages of the source.
# Experiment: PK after subcutaneous administration of solutions in rats
# Format: in vivo, Wistar Han rat
# Conditions: Wistar Han, plasma, rat, SC 50 mg/kg; for AUC(0-t) / concentration at 28 d / concentration at 84 d / Cmax / concentration at 98 d / concentration at 168 d / concentration at 1 h / concentration at 3 h / concentration at 8 h / concentration at 24 h / concentration at 48 h / concentration at 72 h / concentration at 96 h / concentration at 168 h / concentration at 336 h / concentration at 504 h / concentration at 672 h / concentration at 840 h / concentration at 1008 h / concentration at 1344 h / concentration at 1680 h: sc, 50 mg/kg; for concentration at 28 d: read-out: C28d; for concentration at 84 d: read-out: C84d; for concentration at 98 d: read-out: C98d; for concentration at 1 h / concentration at 3 h / concentration at 8 h / concentration at 24 h / concentration at 48 h / concentration at 72 h / concentration at 96 h / concentration at 168 h / concentration at 336 h / concentration at 504 h / concentration at 672 h / concentration at 840 h / concentration at 1008 h / concentration at 1344 h / concentration at 1680 h: male, 300 mg/mL in 15% water/85% PEG 300
# Procedure: Formulations containing the compound of Formula (Ia) were prepared as aqueous solutions or oral formulations and administered subcutaneously to rats, dogs, cynomolgus monkey, and/or rhesus monkey.
# A solution of the compound of Formula (Ia) in 10% ethanol, 13% water, and 77% PEG 200 (400 mg/mL) was prepared. The solution was administered subcutaneously to dogs at a dose of 12 mg/kg and rats at a dose of 50 mg/kg and the pharmacokinetic (PK) profile was determined. […] In both species, plasma concentrations of the compound of Formula (Ia) were maintained above the target trough concentration of 20 nM (corresponding to an IQ of 5) for at least 84 days (12 weeks).
# A solution of the free acid of the compound of Formula (Ia) in 15% water and 85% PEG 300 (300 mg/mL) was prepared. The solution was administered subcutaneously to male Wistar Han rats at a dose level of 50 mg/kg and dose volume of 0.167 mL/kg and the pharmacokinetic (PK) profile was determined.
# A 300 mg/ml solution of a compound of Formula (Ia) having 9.8 w/w % water, 65.0 w/w % PEG 300, and 25.2 w/w % of the compound of Formula (Ia) was prepared. The solution was administered subcutaneously to rats at a dose of 50 mg/kg and to dogs at a dose of 12 mg/kg and the pharmacokinetic (PK) profile was determined. […] In the rat, plasma concentrations of the compound of Formula (Ia) were maintained above the target trough concentration of 20 nM for at least 168 days (24 weeks). In the dog, plasma concentrations of the compound of Formula (Ia) were maintained above the target trough concentration of 20 nM for at least 84 days (12 weeks).
# (§1) A 150 mg/ml solution of a compound of Formula (Ia) having 27.92 w/w % water, 58.04 w/w % PEG 300, 13.47 w/w % of a compound of Formula (Ia), and 1.1 w/w % NaOH was prepared. The solution was administered subcutaneously to rats at a dose of 50 mg/kg and to dogs at a dose of 12 mg/kg and the pharmacokinetic (PK) profile was determined. […] In the rat, plasma concentrations of the compound of Formula (Ia) were maintained above the target trough concentration of 20 nM for at least 126 days (18 weeks). In the dog, plasma concentrations of the compound of Formula (Ia) were maintained above the target trough concentration of 20 nM for at least 56 days (8 weeks).
# as §1, with “300” for “150”, “23.2” for “27.92”, “50.0” for “58.04”, “25.7” for “13.47”
# A 50 mg/ml solution of a compound of Formula (Ia) having 30.07 w/w % water, 64.40 w/w % PEG 300, 4.68 w/w % of a sodium salt of the compound of Formula (Ia), and 0.85 w/w % poloxamer 188 was prepared. The solution was administered subcutaneously to rats at a dose of 50 mg/kg and to dogs at a dose of 6 mg/kg and the pharmacokinetic (PK) profile was determined. […] In the rat, plasma concentrations of the compound of Formula (Ia) were maintained above the target trough concentration of 20 nM for at least 28 days (4 weeks). In the dog, plasma concentrations of the compound of Formula (Ia) were maintained above the target trough concentration of 20 nM for at least 14 days (2 weeks).
# A 75 mg/ml solution of a compound of Formula (Ia) having 29.21 w/w % water, 62.55 w/w % PEG 300, 6.97 w/w % of a sodium salt of the compound of Formula (Ia), and 1.68 w/w % poloxamer 188 was prepared. The solution was administered subcutaneously to rats at a dose of 50 mg/kg and to dogs at a dose of 6 mg/kg and the pharmacokinetic (PK) profile was determined. […]
# [1] = 150 mg/mL solution (w/w %: 27.92 water, 58.04 PEG 300, 13.47 Formula (Ia), 1.1 NaOH), mean ± SD, n=3
# [2] = 300 mg/mL solution (w/w %: 21.97 water, 47.05 PEG 300, 25.21 Formula (Ia), 1.08 NaOH, 4.69 poloxamer 188), mean ± SD, n=3
# [3] = 400 mg/mL solution in 10% ethanol, 13% water, 77% PEG 200, mean ± SD, n=3
smiles,measurement,setting,value
"CC(C)(C#Cc1ccc(-c2ccc(Cl)c3c(NS(C)(=O)=O)nn(CC(F)(F)F)c23)c([C@H](Cc2cc(F)cc(F)c2)NC(=O)Cn2nc(C(F)(F)F)c3c2C(F)(F)[C@@H]2C[C@H]32)n1)S(C)(=O)=O [Formula (Ia), N—((S)-1-(3-(4-chloro-3-(methylsulfonamido)-1-(2,2,2-trifluoroethyl)-1H-indazol-7-yl)-6-(3-methyl-3-(methylsulfonyl)but-1-yn-1-yl)pyridin-2-yl)-2-(3,5-difluorophenyl)ethyl)-2-((3bS,4aR)-5,5-difluoro-3-(trifluoromethyl)-3b,4,4a,5-tetrahydro-1H-cyclopropa[3,4]cyclopenta[1,2-c]pyrazol-1-yl)acetamide]",Tmax,[1],18.7 ± 4.04 days
same,AUC(0-t),"50 mg/mL solution (w/w %: 30.07 water, 64.40 PEG 300, 4.68 sodium salt of Formula (Ia), 0.85 poloxamer 188), mean ± SD, n=3, read-out: AUC0-7d",156 ± 48 µM·h
same,concentration at 28 d,"50 mg/mL solution (w/w %: 30.07 water, 64.40 PEG 300, 4.68 sodium salt of Formula (Ia), 0.85 poloxamer 188), mean ± SD, n=3",0.082 ± 0.035 µM
same,concentration at 28 d,"75 mg/mL solution (w/w %: 29.21 water, 62.55 PEG 300, 6.97 sodium salt of Formula (Ia), 1.68 poloxamer 188), mean ± SD, n=3",0.0325 ± 0.0185 µM
same,AUC(0-t),"100 mg/mL solution (w/w %: 28.36 water, 60.73 PEG 300, 9.23 sodium salt of Formula (Ia), 1.68 poloxamer 188), mean ± SD, n=3, read-out: AUC0-7d",202 ± 27 µM·h
same,concentration at 28 d,"100 mg/mL solution (w/w %: 28.36 water, 60.73 PEG 300, 9.23 sodium salt of Formula (Ia), 1.68 poloxamer 188), mean ± SD, n=3",0.415 ± 0.098 µM
same,concentration at 28 d,"125 mg/mL solution (w/w %: 27.51 water, 58.92 PEG 300, 11.48 sodium salt of Formula (Ia), 2.09 poloxamer 188), mean ± SD, n=3",0.0279 ± 0.0262 µM
same,concentration at 84 d,"150 mg/mL solution (w/w %: 26.6 water, 56.97 PEG 300, 13.39 Formula (Ia), 0.57 NaOH, 2.49 poloxamer 188), mean ± SD, n=3",0.0533 ± 0.0457 µM
same,Cmax,[1],0.809 ± 0.021 µM
same,concentration at 98 d,[1],0.037 ± 0.0107 µM
same,Cmax,"300 mg/mL solution (w/w %: 9.8 water, 65.0 PEG 300, 25.2 Formula (Ia)), mean ± SD, n=3",0.318 ± 0.146 µM
same,concentration at 168 d,"300 mg/mL solution (w/w %: 9.8 water, 65.0 PEG 300, 25.2 Formula (Ia)), mean ± SD, n=3, read-out: Cd168",0.0784 ± 0.0138 µM
same,Cmax,[2],0.915 ± 0.248 µM
same,concentration at 98 d,[2],0.0513 ± 0.0365 µM
same,Cmax,"300 mg/mL solution (w/w %: 23.2 water, 50.0 PEG 300, 25.7 Formula (Ia), 1.1 NaOH), mean ± SD, n=3",0.355 ± 0.036 µM
same,concentration at 168 d,"300 mg/mL solution (w/w %: 23.2 water, 50.0 PEG 300, 25.7 Formula (Ia), 1.1 NaOH), mean ± SD, n=3, read-out: C168d",0.0128 ± 0.0035 µM
same,AUC(0-t),"400 mg/mL solution in 10% ethanol, 13% water, 77% PEG 200, mean ± SD, n=3, read-out: AUC0-140d",569 ± 157 µM·h
same,concentration at 84 d,[3],0.162 ± 0.03 µM
same,Cmax,[3],0.283 ± 0.119 µM
same,concentration at 1 h,rat #1,0.0089 µM
same,concentration at 3 h,rat #1,0.027 µM
same,concentration at 8 h,rat #1,0.037 µM
same,concentration at 24 h,rat #1,0.0526 µM
same,concentration at 48 h,rat #1,0.0698 µM
same,concentration at 72 h,rat #1,0.0656 µM
same,concentration at 96 h,rat #1,0.0655 µM
same,concentration at 168 h,rat #1,0.143 µM
same,concentration at 336 h,rat #1,0.258 µM
same,concentration at 504 h,rat #1,0.327 µM
same,concentration at 672 h,rat #1,0.333 µM
same,concentration at 840 h,rat #1,0.322 µM
same,concentration at 1008 h,rat #1,0.3 µM
same,concentration at 1344 h,rat #1,0.251 µM
same,concentration at 1680 h,rat #1,0.202 µM
same,concentration at 1 h,rat #2,0.0114 µM
same,concentration at 3 h,rat #2,0.0173 µM
same,concentration at 8 h,rat #2,0.0328 µM
same,concentration at 24 h,rat #2,0.0492 µM
same,concentration at 48 h,rat #2,0.0711 µM
same,concentration at 72 h,rat #2,0.0669 µM
same,concentration at 96 h,rat #2,0.0768 µM
same,concentration at 168 h,rat #2,0.132 µM
same,concentration at 336 h,rat #2,0.273 µM
same,concentration at 504 h,rat #2,0.267 µM
same,concentration at 672 h,rat #2,0.299 µM
same,concentration at 840 h,rat #2,0.316 µM
same,concentration at 1008 h,rat #2,0.258 µM
same,concentration at 1344 h,rat #2,0.229 µM
same,concentration at 1680 h,rat #2,0.166 µM
same,concentration at 1 h,rat #3,0.0056 µM
same,concentration at 3 h,rat #3,0.0201 µM
same,concentration at 8 h,rat #3,0.0268 µM
same,concentration at 24 h,rat #3,0.0428 µM
same,concentration at 48 h,rat #3,0.0708 µM
same,concentration at 72 h,rat #3,0.0701 µM
